Reference: US10005735B2, “Inhibitors of RPN11” (California Institute of Technology, priority 2015, dated 2018)

Key:
Csn5 = Csn5 (Homo sapiens (Human), UniProt Q92905); assay: Csn5 activity assay (fluorescence polarization, SCF^skp2-Nedd8OG, COP9 Signalosome Complex); format: biochemical; details: Table 2
Description: Csn5 Activity Assay. […] In brief, a fluorescent substrate termed SCF^skp2-Nedd8OG was produced to measure CSN5 activity in vitro. This assay measures the decrease in fluorescence polarization due to the decrease in apparent molecular weight of Oregon Green (OG) fluorophore (from the ˜175 kDa substrate to ˜9 kDa Nedd8OG) as a result of Csn5-mediated cleavage of the isopeptide bond that links Nedd8OG to SCF^Skp2. The assay was performed in a low-volume 384 well solid black plate comprising equal volumes of compound, substrate (SCF^skp2-Need8OG) and enzyme (purified COP9 Signalosome Complex, CSN). Fluorescence polarization was recorded using the same setting as for the Rpn11 activity assay.

Rpn11 [1] = molecular target: T1, Rpn11 (Homo sapiens (Human), UniProt O00487); assay: Rpn11 activity assay (fluorescence polarization, Ub4-pepOG cleavage by 26S proteasome); format: biochemical; details: Table 2; 1 mM DTT in assay reduces disulfides to monomeric active species
T1 sequence (O00487 whole entry, looked up, the tested form may be a part): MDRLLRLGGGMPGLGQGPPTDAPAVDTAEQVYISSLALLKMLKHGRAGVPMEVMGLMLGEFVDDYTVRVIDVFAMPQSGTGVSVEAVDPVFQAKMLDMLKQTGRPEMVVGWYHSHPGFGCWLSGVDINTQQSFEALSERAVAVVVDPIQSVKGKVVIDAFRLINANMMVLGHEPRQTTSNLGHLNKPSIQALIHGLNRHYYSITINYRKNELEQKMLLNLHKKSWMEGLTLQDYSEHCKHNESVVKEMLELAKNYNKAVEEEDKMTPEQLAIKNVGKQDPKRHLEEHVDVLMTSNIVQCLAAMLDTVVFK
Text: Candidate compounds according to embodiments of the present invention were synthesized as described herein. […] In brief, this Rpn11 bioassay employs a fluorescent polarization readout based on the ability of the 26S proteasome to cleave the protein substrate including four tandem ubiquitin proteins fused to a peptide having a unique cysteine labeled with a fluorophore. Cleavage of this substrate by Rpn11 at the junction between the fourth ubiquitin and the peptide, releases the low molecular weight fluorescent peptide. Accordingly, inhibition of fluorescence correlates with inhibition of Rpn11. Inhibition is reported as the half maximal inhibitory concentration (IC50) for the candidate compound.
Rpn11 Activity Assay. […] In brief, in order to measure the Rpn11 activity, a synthetic peptide substrate, termed Ub4-pepOG, was engineered. […] Peptide substrate Ub4-pepOG consists of only 30 amino acids and therefore the decrease of polarization is mainly from deubiquitination but not the proteolysis of the peptide. Fluorescence polarization assay was performed in a low-volume 384 well solid black plate where the components are added in the follow sequence: 1) 5 μl compound in 3% DMSO or 3% DMSO control 2) 5 μl 26S proteasome (Enzo Life Sciences Inc, NY). […] Fluorescence polarization is measured using a PHERAstar (BMG labtech, Ortenberg, Germany) plate reader with excitation of 480 nm and emission of 520 nm filter set. […] Rpn11 activity was normalized to DMSO control and fitted using does-response curve.

Rpn11 [2] = molecular target: T1, Rpn11; assay: as above; format: biochemical; details: does not inhibit Csn5 or AMSH with the same potency as Rpn11
Ub^G76V-GFP = assay: Reporter degradation assay in Hela cells expressing Ub^G76V-GFP; format: cell-based; details: after MG132 removal, cycloheximide chase
Description: Characterization of the Compound Activity in Cells. […] After 4 hours, MG132 was removed and a cycloheximide (CHX) chase was initiated +/− different concentrations of test compound and the rate of reporter degradation was evaluated by monitoring GFP fluorescence by high throughput microscopy. The rate of fluorescence decrease was normalized to DMSO control and analyzed using does-response equation.

AMSH = AMSH (Homo sapiens (Human), UniProt O95630); assay: AMSH activity assay (DiUb^K63TAMRA cleavage, fluorescence); format: biochemical; details: Table 2
AMSH, sequence (O95630 whole entry): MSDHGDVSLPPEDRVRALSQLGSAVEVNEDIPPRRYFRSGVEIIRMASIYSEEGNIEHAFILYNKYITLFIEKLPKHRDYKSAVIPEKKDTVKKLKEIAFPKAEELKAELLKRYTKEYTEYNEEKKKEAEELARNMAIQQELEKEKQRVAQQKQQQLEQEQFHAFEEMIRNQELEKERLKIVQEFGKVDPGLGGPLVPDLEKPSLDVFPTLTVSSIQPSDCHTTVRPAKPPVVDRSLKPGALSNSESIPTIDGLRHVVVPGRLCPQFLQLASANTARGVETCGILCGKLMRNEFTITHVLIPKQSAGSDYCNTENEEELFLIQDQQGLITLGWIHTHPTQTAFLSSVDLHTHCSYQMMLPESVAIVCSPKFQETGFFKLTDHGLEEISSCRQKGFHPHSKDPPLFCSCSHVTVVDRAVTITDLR
Text: AMSH Activity Assay. AMSH is known to selectively cleave ubiquitin chains in which the ubiquitins are joined via K63 of the proximal ubiquitin linked by an isopeptide bond to the carboxy terminus of the distal ubiquitin. […] In brief, DiUb^K63TAMRA was labeled with quench pairs TAMRA/QXL.

| SMILES | IC50 (Csn5) [nM] | IC50 (Rpn11 [1]) [nM] | specificity for Rpn11 versus Csn5 and/or AMSH (in words) (Rpn11 [2]) | IC50 (Ub^G76V-GFP; Homo sapiens) [nM] | IC50 (AMSH) [nM] | IC50 (Ub^G76V-GFP) [nM] |
| --- | --- | --- | --- | --- | --- | --- |
| NC(=O)c1cnc2c(SSc3cccc4cc(C(N)=O)cnc34)cccc2c1 [Compound 1, 8,8′-Disulfanediylbis(quinoline-3-carboxamide)] | 15000 | 1000 | specific inhibitors of Rpn11 | 1200 | 1200 | – |
| O=C(NCCc1ccco1)c1ccnc2c(SSc3cccc4c(C(=O)NCCc5ccco5)ccnc34)cccc12 [Compound 26, 8,8′-disulfanediylbis(N-(2-(furan-2-yl)ethyl)quinoline-4-carboxamide)] | 8000 | 1000 | specific inhibitors of Rpn11 | 1600 | 2900 | – |
| O=C(NCCc1cccs1)c1ccnc2c(SSc3cccc4c(C(=O)NCCc5cccs5)ccnc34)cccc12 [Compound 24, 8,8′-disulfanediylbis(N-(2-(thiophen-2-yl)ethyl)quinoline-4-carboxamide)] | 7300 | 700 | specific inhibitors of Rpn11 | – | 1000 | 1100 |
| O=C(NCc1ccc(C(F)(F)F)cc1)c1cnc2c(SSc3cccc4cc(C(=O)NCc5ccc(C(F)(F)F)cc5)cnc34)cccc2c1 [Compound 18, 8,8′-Disulfanediylbis(N-(4-(trifluoromethyl)benzyl)quinoline-3-carboxamide)] | > 100000 | 700 | specific inhibitors of Rpn11 | – | 3400 | > 10000 |
